Source: paper PMC5676250, “Cholesterol-directed nanoparticle assemblies based on single amino acid peptide mutations activate cellular uptake and decrease tumor volume” (Chemical Science, 2017)
Read-outs that look alike come from different tables or passages of the source. Residues, ends and D or L forms follow the SMILES beside them. No end group written: not given here. *: point of attachment. X1 = CC(C)CCC[C@@H](C)[C@H]1CC[C@H]2[C@@H]3CC=C4C[C@@H](OCC(=O)*)CC[C@]4(C)[C@H]3CC[C@]12C

Tests used:
[1] = test system: SKOV-3 cells; assay: MTT assay of endocytosis inhibitors, 40 min; type: cell-based
Protocol: The cytotoxicity was tested using an MTT assay. […] A combined solution of 5 mg mL^-1 MTT/PBS (10 μL per well) was added to each well of the 96-well plate assay, and the cells were incubated for an additional 4 hours. Formazan extraction was performed with DMSO and quantified colorimetrically using a Synergy H4 Hybrid Microplate reader (Biotek, USA), which was used to measure the OD 490 nm (absorbance value). The following formula was used to calculate the viability of cell growth: viability (%) = (mean of absorbance value of treatment group-blank/mean absorbance value of control-blank) × 100 (MTT was purchased from Sigma-Aldrich).

[2] = test system: SKOV-3 ovarian cancer cells; settings: 24 h
Protocol: SKOV-3 cells were seeded in a 35 mm petri dish with a glass cover slide and allowed […]

[3] = in vitro; settings: mouse, serum, pH 8.2
Protocol: A 1.5 mL mixture consisting of 30 μL mouse serum, 750 μL of peptides (1 mg mL^–1) and 1470 μL of digestion buffer (pH 8.2, 50 mM Tris, 20 mM CaCl2) was incubated at 37 °C for 16 h. Peptides treated with digestion buffer served as controls. Aliquots of 400 μL were withdrawn from the mixture and quenched with 400 μL of 1% trifluoroacetic acid (TFA) solution at 1 h, 8 h and 16 h. The quenched solution was analysed by reverse-phase high performance liquid chromatography (RP-HPLC). […]
to adhere overnight at 37 °C under 5% CO2. The cell culture medium was then removed and replaced with fresh McCoy’s 5A medium containing HAL-2 (10 μM) or HAL-C (10 μM) for 1 h. After the medium was removed and the cells were washed with PBS (1 mL × 3 times), 1 mL of PBS containing 4 μL staining solution was added for 1 h.
The cells were then washed with PBS (1 mL × 3 times) before imaging. Cell fluorescence images were obtained with a confocal laser scanning microscope. […] for Tubulin-Trakcer Red: excitation: 561 nm, emission collected: 570 -620 nm; Blue channel for DAPI: excitation: 405 nm, emission collected: 425 -475 nm. (Tubulin-Trakcer Red were purchased from Beyotime Biotechnology) […]
SKOV-3 cells were seeded in a 35 mm petri dish with a glass cover slide and allowed to adhere overnight at 37 °C under 5% CO2. […] Cell fluorescence images were obtained with a confocal laser scanning microscope. […]
A 1.5 mL mixture consisting of 30 μL serum, 750 μL of peptides (1 mg/mL) , and 1470 μL of digestion buffer (pH 8.2, 50 mM Tris, 20 mM CaCl 2 ) was incubated at 37 °C for 16 h. […] The quenched solution was analyzed by reverse -phase […]
In vivo antitumor studies: When the tumors reached a mean volume of 50 mm 3 after inoculation of SKOV-3 cells, the mice were randomly separated into three groups (N=3/group): (1) negative control (PBS); (2) HAL-2; (3) HAL-C. […] During therapy, the tumor volumes and body weights were measured every two days. Length and width of tumors were measured individually using a Vernier caliper. Tumor volumes were calculated using the following formula: tumor volume = length × width 2 × 0.5. […]

[4] = MTT, 40 min incubation, tested inhibitor concentrations (Fig. S17)

**Q.** With methyl-beta cyclodextrin [MBCD] as the compound, how does the “decrease of SKOV-3 cell viability” value [1] read?
**A.** no significant effects

**Q.** Which “decrease of SKOV-3 cell viability” value [1, 4] does the source give for N=C(N)NC(=O)c1nc(Cl)c(N)nc1N [AM, amiloride] here?
**A.** 20%

**Q.** Which IC50 [2] does the source give for CSCC[C@H](NC(=O)[C@H](Cc1c[nH]c2ccccc12)NC(=O)[C@H](CCCCN)NC(=O)CN)C(=O)N[C@@H](CO)C(=O)N[C@@H](CC(C)C)C(=O)N[C@@H](CC(C)C)C(=O)N[C@@H](CCCCN)C(=O)N[C@@H](Cc1c[nH]cn1)C(=O)N[C@@H](CCCCNC(=O)CO[C@H]1CC[C@@]2(C)C(=CC[C@H]3[C@@H]4CC[C@H]([C@H](C)CCCC(C)C)[C@@]4(C)CC[C@@H]32)C1)C(=O)N[C@@H](CC(C)C)C(=O)N[C@@H](CCCCN)C(N)=O [HAL-D] (H-GKWMSLLKHK(X1)LK-NH2) here?
**A.** 16.2 ± 0.1 µM

**Q.** For CC[C@H](C)[C@H](NC(=O)[C@H](Cc1c[nH]cn1)NC(=O)[C@H](CCCCNC(=O)CO[C@H]1CC[C@@]2(C)C(=CC[C@H]3[C@@H]4CC[C@H]([C@H](C)CCCC(C)C)[C@@]4(C)CC[C@@H]32)C1)NC(=O)[C@H](CC(C)C)NC(=O)[C@H](CC(C)C)NC(=O)[C@H](CO)NC(=O)[C@H](CCSC)NC(=O)[C@H](Cc1c[nH]c2ccccc12)NC(=O)[C@H](CCCCN)NC(=O)CN)C(=O)N[C@@H](CC(C)C)C(=O)N[C@@H](CCCCN)C(N)=O [HAL-B] (H-GKWMSLLK(X1)HILK-NH2), which IC50 [2] is on record?
**A.** 24.6 ± 0.1 µM

**Q.** For CC[C@H](C)[C@H](NC(=O)[C@H](Cc1c[nH]cn1)NC(=O)[C@H](CCCCN)NC(=O)[C@H](CC(C)C)NC(=O)[C@H](CCCCNC(=O)CO[C@H]1CC[C@@]2(C)C(=CC[C@H]3[C@@H]4CC[C@H]([C@H](C)CCCC(C)C)[C@@]4(C)CC[C@@H]32)C1)NC(=O)[C@H](CO)NC(=O)[C@H](CCSC)NC(=O)[C@H](Cc1c[nH]c2ccccc12)NC(=O)[C@H](CCCCN)NC(=O)CN)C(=O)N[C@@H](CC(C)C)C(=O)N[C@@H](CCCCN)C(N)=O [HAL-C] (H-GKWMSK(X1)LKHILK-NH2), which IC50 [2] is on record?
**A.** 12.7 ± 0.1 µM

**Q.** With CN(C)CCCN1c2ccccc2Sc2ccc(Cl)cc21 [CPZ, chlorpromazine] as the compound, how does the “decrease of SKOV-3 cell viability” value [1, 4] read?
**A.** 38%

**Q.** For GKWMSLLKHILK-NH2 [HAL-2], which IC50 [2] is on record?
**A.** 54.1 ± 0.5 µM

**Q.** And the remaining at 1 h [3]?
**A.** 55.4%

**Q.** And the remaining at 8 h [3]?
**A.** 29.4%

**Q.** And the remaining at 16 h [3]?
**A.** 11.2%
